As usually defined, the melting point is the temperature, or range, at which the solid turns liquid.

The source of these data is patent US9278943B2, “Methods of using as analgesics 1-benzyl-1-hydroxy-2, 3-diamino-propyl amines, 3-benzyl-3-hydroxy-2-amino-propionic acid amides and related compounds” (Exonhit Therapeutics SA, priority 2005, dated 2016).

Series [1] concerns tactile allodynia in the rat Chung model (L5/L6 spinal nerve ligation). Kind of series: Chung model: reversal of tactile allodynia (von Frey hairs) after spinal nerve ligation. It counts as in vivo. As to conditions: read-out: Peak % Pain reversal: time post dose; for inhibition in vivo at 0.3 mg/kg: 300 μg/kg IP; for inhibition in vivo at 1 mg/kg: 1000 μg/kg IP. An excerpt: An art-accepted model or assay for measuring an analgesic effect of a compound in chronic pain (in particular peripheral neuropathy) is the model known as Kim and Chung 1992, Pain […], pp 355-363 (Chung model). This model involves the surgical ligation of the L5 (and optionally the L6) spinal nerves on one side in experimental animals. Rats recovering from the surgery gain weight and display a level of general activity similar to that of normal rats. However, these rats develop abnormalities of the foot, wherein the hindpaw is moderately everted and the toes are held together. More importantly, the hindpaw on the side affected by the surgery appears to become sensitive to low-threshold mechanical stimuli and will perceive pain instead of the faint sensation of touch. This sensitivity to normally non-painful touch, called “tactile allodynia”, develops within the first week after surgery and lasts for at least two months. The allodynia response includes lifting the affected hindpaw to escape from the stimulus, licking the paw and holding it in the air for many seconds. None of these responses is normally seen in the control group.
To produce the tactile allodynia, rats are anesthetized before surgery. The surgical site is shaved and prepared either with betadine or Novacaine. Incision is made from the thoracic vertebra Xlll down toward the sacrum. Muscle tissue is separated from the spinal vertebra (left side) at the L4-S2 levels. The L6 vertebra is located and the transverse process is carefully removed with a small rongeur to expose the L4-L6 spinal nerves. The L5 and L6 spinal nerves are isolated and tightly ligated with 6-0 silk thread. The same procedure is done on the right side as a control, except no ligation of the spinal nerves is performed.
After a complete hemostasis is confirmed, the wounds are sutured. A small amount of antibiotic ointment is applied to the incised area, and the rat is transferred to the recovery plastic cage under a regulated heat-temperature lamp.
On the day of the experiment, at least seven days after the surgery, typically six rats per test group are administered the test drugs by intraperitoneal (i.p.) injection or oral gavage (p.o.). For i.p. administration, the compounds are formulated in H2O and given in a volume of 1 ml/kg body weight by injecting into the intraperitoneal cavity. For p.o. administration, the compounds are formulated in H2O and given in a volume of 1 ml/kg body weight using an 18-gauge, 3 inch gavage needle that is slowly inserted through the esophagus into the stomach.
Tactile allodynia is assessed via von Frey hairs, which are a series of fine hairs with incremental differences in stiffness. Rats are placed in a plastic cage with a wire mesh bottom and allowed to acclimate for approximately 30 minutes. To establish the pre-drug baseline, the von Frey hairs are applied perpendicularly through the mesh to the mid-plantar region of the rats' hindpaw with sufficient force to cause slight buckling and held for 6-8 seconds. The applied force has been calculated to range from 0.41 to 15.1 grams. If the paw is sharply withdrawn, it is considered a positive response. A normal animal will not respond to stimuli in this range, but a surgically ligated paw will be withdrawn in response to a 1-2 gram hair. The 50% paw withdrawal threshold is determined using the method of Dixon, W. J., Ann. Rev. Pharmacol. Toxicol. 20:441-462 (1980) hereby incorporated by reference. Tactile allodynia is measured prior to and 15, 30, and 60 minutes after drug administration. The post-drug threshold is compared to the pre-drug threshold and the percent reversal of tactile sensitivity is calculated based on a normal threshold of 15.1 grams.
Table 1 below indicates the degree of pain reversal obtained in the Chung model with exemplary compounds used in accordance with the invention. […]

In another series the target is T1, GlcCer synthase (GCS) (Homo sapiens, UniProt Q16739).
T1 sequence (Q16739 1-394): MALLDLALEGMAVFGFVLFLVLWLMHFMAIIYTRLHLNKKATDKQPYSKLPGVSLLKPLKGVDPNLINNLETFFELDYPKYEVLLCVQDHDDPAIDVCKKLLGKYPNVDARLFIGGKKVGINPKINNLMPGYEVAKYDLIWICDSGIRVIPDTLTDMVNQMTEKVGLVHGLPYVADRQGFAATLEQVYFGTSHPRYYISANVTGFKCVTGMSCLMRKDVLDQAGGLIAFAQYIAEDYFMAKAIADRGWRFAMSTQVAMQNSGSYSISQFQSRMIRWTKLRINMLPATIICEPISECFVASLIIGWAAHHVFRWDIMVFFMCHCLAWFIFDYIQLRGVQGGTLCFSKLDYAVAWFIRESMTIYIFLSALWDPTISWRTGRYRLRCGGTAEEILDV
The following applies: cited from earlier work.

The test system of series [2] is glycosphingolipid biosynthesis. The following applies: via inhibition of glycosphingolipid biosynthesis; cited from earlier work.
The subject of a further series is synaptic function. As to conditions: cited from earlier work.
The test system of series [3] is transient forebrain ischemia in rats. As to conditions: treatment after transient forebrain ischemia in rats; 8-arm maze task; cited from earlier work.
[4] abbreviates: 1 h, 30 μg/kg IP, peak at 60 min post dose.

SMILES strings stand for the structures. Where a name gives a salt, the structure may show the parent alone. Read-outs that look alike come from different tables or passages of the source.

As for `N[C@@H](C(=O)N1CCCC1)[C@@H](O)c1ccccc1` (racemic) [Compound 16, DL-threo-2-Amino-3-hydroxy-3-phenyl-1-(pyrrolidin-1-yl)propan-1-one hydrochloride], the inhibition in vivo at 0.3 mg/kg in series [1] (1 h, peak at 60 min post dose) worked out at 93%.
Regarding `CCCCCCCCCCCCCCCC(=O)N[C@H](CN1CCCC1)[C@H](O)c1ccc(O)cc1` [D-threo-4′-hydroxy-P4], the “inhibition of GCS” value at GlcCer synthase (GCS) is listed as “one of the most potent inhibitor of GCS”.
On to `C[C@H](N[C@H](CN1CCOCC1)[C@H](O)c1ccccc1)c1ccccc1` [Compound 5, D-threo-2-((S)-1-Phenylethylamino)-3-morpholino-1-phenylpropan-1-ol dihydrochloride], for which the inhibition in vivo at 0.3 mg/kg in series [1] (1 h, peak at 60 min post dose) worked out at 85%.
Take `Cc1ccc([C@H](O)[C@@H](N)C(=O)N2CCCC2)cc1` (racemic) [Compound 17, DL-threo-2-Amino-3-hydroxy-1-(pyrrolidin-1-yl)-3-p-tolylpropan-1-one hydrochloride]: the inhibition in vivo at 0.3 mg/kg in series [1] (1 h, peak at 60 min post dose) is 100%.
Turning to `CCCCCCCCCC(=O)N[C@@H](CN1CCOCC1)[C@H](O)c1ccccc1` (racemic) [DL-erythro-PDMP, 1-Phenyl-2-decanoylamino-3-morpholino-1-propanol, reference compound], in series [1] (0.5 h, peak at 30 min post dose), the inhibition in vivo at 1 mg/kg was 68%.
Regarding `N[C@@H](CN1CCOCC1)[C@@H](O)c1ccccc1` (as salt: hydrochloride) [Compound 2, L-threo-2-Amino-3-morpholino-1-phenylpropan-1-ol dihydrochloride], the melting point lay within 166.4 to 170.9 °C.
Regarding `COc1ccc([C@H](O)[C@@H](N)CN2CCCC2)cc1` (racemic) [Compound 9, DL-threo-2-Amino-1-(4-methoxyphenyl)-3-(pyrrolidin-1-yl)propan-1-ol], the inhibition in vivo at 0.03 mg/kg in series [1] (setting [4]) was determined as 88%.
Regarding `N[C@@H](CN1CCCC1)[C@@H](O)c1ccc2c(c1)OCCO2` (racemic) [Compound 6, DL-threo-2-Amino-1-(2,3-dihydrobenzo[b][1,4]dioxin-6-yl)-3-(pyrrolidin-1-yl)propan-1-ol], the inhibition in vivo at 0.03 mg/kg in series [1] (setting [4]) came to 92%.
For the molecule `N[C@@H](C(=O)N1CCCC1)[C@@H](O)c1ccc(Cl)c(Cl)c1` (racemic) [Compound 15, DL-threo-2-Amino-3-(3,4-dichlorophenyl)-3-hydroxy-1-(pyrrolidin-1-yl)propan-1-one hydrochloride], the inhibition in vivo at 0.3 mg/kg in series [1] (1 h, peak at 60 min post dose) was determined as 42%.
Take `N[C@@H](CN1CCOCC1)[C@@H](O)c1ccccc1` [Compound 2, L-threo-2-Amino-3-morpholino-1-phenylpropan-1-ol dihydrochloride]: the inhibition in vivo at 0.1 mg/kg in series [1] (1 h, 100 μg/kg IP, peak at 60 min post dose) worked out at 91%.
Turning to `CCCCCCCCCC(=O)N[C@@H](CN1CCCC1)[C@@H](O)c1ccc2c(c1)OCCO2` (racemic) [Compound 7, N-(DL-threo-1-(2,3-dihydrobenzol[b][1,4]dioxin-6-yl)-1-hydroxy-3-(pyrrolidin-1-yl)propan-2-yl)decanamide], in series [1] (0.5 h, 1 μg/kg IP, peak at 30 min post dose), the inhibition in vivo at 0.001 mg/kg turned out to be 26%.
Consider `CCCCCCCCCC(=O)N[C@H](CN1CCOCC1)[C@H](O)c1ccccc1` [D-threo-PDMP, 1-Phenyl-2-decanoylamino-3-morpholino-1-propanol], for which, in series [2], the antitumor activity entry was “has antitumor activity”. Besides, in series [1] (1 h, peak at 60 min post dose), the inhibition in vivo at 1 mg/kg is 77%. Further, the “effect on synaptic function” value in the series on synaptic function was “suppresses synaptic function”.
In the case of `CCCCCCCCCC(=O)N[C@@H](CN1CCOCC1)[C@@H](O)c1ccccc1` [L-threo-PDMP, (1S,2S)-1-phenyl-2-decanoylamino-3-morpholino-1-propanol, reference compound], the “deficit of a well learned spatial memory” value in series [3] is listed as “ameliorated the deficit”. The inhibition in vivo at 0.03 mg/kg in series [1] (0.5 h, 30 μg/kg PO, peak at 30 min post dose) worked out at 100%.
Consider `O=C(N[C@H](CN1CCCC1)[C@H](O)c1ccccc1)OCc1ccccc1` [PBPP, D-threo-1-phenyl-2-benzyloxycarbonylamino-3-pyrrolidino-1-propanol], for which the “inhibition of GCS” value at GlcCer synthase (GCS) is recorded as “potent GCS inhibitor”.
